molecular target: T1, Progesterone receptor (Rattus norvegicus) (UniProt Q63449); experiment: Effective dose on subcutaneous administration in ovariectomized female rat decidualization model; type: functional, organism-based
T1 sequence (whole entry): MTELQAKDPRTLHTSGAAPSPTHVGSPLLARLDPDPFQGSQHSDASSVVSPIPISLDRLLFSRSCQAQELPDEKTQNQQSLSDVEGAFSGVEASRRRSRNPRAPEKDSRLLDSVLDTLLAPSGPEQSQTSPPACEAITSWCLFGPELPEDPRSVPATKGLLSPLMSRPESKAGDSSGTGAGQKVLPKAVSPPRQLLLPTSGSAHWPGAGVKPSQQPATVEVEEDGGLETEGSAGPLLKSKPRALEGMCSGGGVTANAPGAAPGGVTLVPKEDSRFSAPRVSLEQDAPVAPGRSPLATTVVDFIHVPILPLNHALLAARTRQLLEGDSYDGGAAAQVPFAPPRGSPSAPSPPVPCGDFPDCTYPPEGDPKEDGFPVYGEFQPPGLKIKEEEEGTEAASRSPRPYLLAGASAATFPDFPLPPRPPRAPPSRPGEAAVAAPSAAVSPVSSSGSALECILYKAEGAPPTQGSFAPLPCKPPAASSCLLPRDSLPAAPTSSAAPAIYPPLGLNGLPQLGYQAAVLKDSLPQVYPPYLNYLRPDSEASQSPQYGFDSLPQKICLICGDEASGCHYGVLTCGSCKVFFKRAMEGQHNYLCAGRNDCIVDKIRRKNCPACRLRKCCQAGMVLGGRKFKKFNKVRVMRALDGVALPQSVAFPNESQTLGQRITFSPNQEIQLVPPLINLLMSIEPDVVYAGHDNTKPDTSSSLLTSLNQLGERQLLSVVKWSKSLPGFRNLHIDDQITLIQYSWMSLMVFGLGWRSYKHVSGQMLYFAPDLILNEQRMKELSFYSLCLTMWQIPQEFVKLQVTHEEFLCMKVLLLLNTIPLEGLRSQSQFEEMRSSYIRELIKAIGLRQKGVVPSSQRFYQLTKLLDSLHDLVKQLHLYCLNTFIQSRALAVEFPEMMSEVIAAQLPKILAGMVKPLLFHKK

ED50 [mg/kg] | Compound
0.22 | CC1(C)OC(S)=Nc2ccc(-c3csc(C#N)c3)cc21

molecular target: T2, Progesterone receptor (Homo sapiens, UniProt P06401); experiment: Inhibition of [3H]P4 to progesterone receptor (PR) of human T47D breast carcinoma cells; type: cell-based
T2 sequence (P06401 whole entry): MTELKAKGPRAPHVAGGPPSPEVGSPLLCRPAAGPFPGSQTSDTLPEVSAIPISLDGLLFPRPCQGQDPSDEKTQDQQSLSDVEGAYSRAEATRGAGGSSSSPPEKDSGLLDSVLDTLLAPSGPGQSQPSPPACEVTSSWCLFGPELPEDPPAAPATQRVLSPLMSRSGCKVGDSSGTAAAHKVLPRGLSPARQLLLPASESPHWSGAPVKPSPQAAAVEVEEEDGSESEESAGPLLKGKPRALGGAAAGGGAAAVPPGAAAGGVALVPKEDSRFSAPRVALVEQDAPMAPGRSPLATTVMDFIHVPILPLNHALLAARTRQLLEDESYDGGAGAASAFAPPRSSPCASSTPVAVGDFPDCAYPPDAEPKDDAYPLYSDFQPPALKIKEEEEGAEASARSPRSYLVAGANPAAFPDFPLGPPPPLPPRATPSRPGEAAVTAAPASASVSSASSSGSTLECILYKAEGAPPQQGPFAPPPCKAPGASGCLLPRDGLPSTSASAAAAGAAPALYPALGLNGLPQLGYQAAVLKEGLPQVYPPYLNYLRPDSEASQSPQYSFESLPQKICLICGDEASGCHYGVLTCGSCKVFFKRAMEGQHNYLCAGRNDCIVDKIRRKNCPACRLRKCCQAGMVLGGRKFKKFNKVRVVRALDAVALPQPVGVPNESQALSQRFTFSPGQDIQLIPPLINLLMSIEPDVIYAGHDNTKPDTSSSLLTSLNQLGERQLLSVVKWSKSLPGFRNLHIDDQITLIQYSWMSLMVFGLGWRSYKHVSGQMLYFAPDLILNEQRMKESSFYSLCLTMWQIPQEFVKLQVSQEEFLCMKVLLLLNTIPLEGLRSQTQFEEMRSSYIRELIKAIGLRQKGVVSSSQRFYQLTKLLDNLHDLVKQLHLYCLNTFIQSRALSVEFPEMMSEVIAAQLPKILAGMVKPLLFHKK

IC50 [nM] | Compound
114 | CN1C(=S)OC(C)(C)c2cc(-c3cccc(Br)c3)ccc21
100 | CCN1C(=S)OC(C)(C)c2cc(-c3cc(F)cc(C#N)c3)ccc21
100 | CN1C(=S)OC(C)(C)c2cc(-c3cc(F)cc(Br)c3)ccc21

molecular target: T2, Progesterone receptor; experiment: Effective concentration on alkaline phosphatase activity in human T47D breast carcinoma cell line.; type: functional, cell-based

EC50 [nM] | Compound
49.8 | CC1(C)OC(=S)Nc2ccc(-c3ccccc3Cl)cc21
300 | CC1OC(=S)Nc2ccc(-c3cccc(F)c3)cc21 (configuration not stated)
> 10000 | CC1(C)OC(S)=Nc2ccc(-c3cc(C#N)cc(OC(F)(F)F)c3)cc21
0.3 | C=CCC1(C)OC(=S)Nc2ccc(-c3cccc(Cl)c3)cc21 (configuration not stated)
7.2 | COc1cccc(-c2ccc3c(c2)C(C)(C)OC(=S)N3)c1
> 10000 | COc1cc(C#N)cc(-c2ccc3c(c2)C(C)(C)OC(=S)N3)c1
1000 | CC1(C)OC(S)=Nc2c(Br)cc(-c3ccc(Cl)c(F)c3)cc21
79.5 | CC1(C)OC(=S)Nc2ccc(-c3ccc(F)c(Cl)c3)cc21
1.7 | CC1(C)OC(=S)Nc2ccc(-c3cc(F)cc(Br)c3)cc21
5.7 | CC1(C)OC(=S)Nc2ccc(-c3cncc(Br)c3)cc21
88.5 | CC1(Cc2ccccc2)OC(=S)Nc2ccc(-c3cccc(Cl)c3)cc21 (configuration not stated)
1.5 | CC1(C)OC(=S)Nc2ccc(-c3cc(F)cc(F)c3)cc21
> 10000 | CN1C(=S)OC(C)(C)c2cc(-c3cccc(Br)c3)ccc21
> 10000 | CC1(C)OC(=S)Nc2ccc(-c3cc(Br)cc(OC(F)(F)F)c3)cc21
0.4 | CC1(C)OC(=S)Nc2ccc(-c3cccc(C#N)c3)cc21
42 | CC1(C)OC(S)=Nc2ccc(-c3cc(C#N)cc(C#N)c3)cc21
1.25 | CC1(C)OC(=S)Nc2ccc(-c3ccc(C#N)o3)cc21
1 | CC1(C)OC(=S)Nc2ccc(-c3cccc(F)c3)cc21
5.7 | CC1(c2ccccc2)OC(=S)Nc2ccc(-c3cccc(Cl)c3)cc21 (configuration not stated)
0.9 | CC1(C)OC(S)=Nc2ccc(-c3cc(F)cc(Cl)c3)cc21
1.2 | CC1(C)OC(=S)Nc2ccc(-c3coc(C#N)c3)cc21
1000 | SC1=Nc2ccc(-c3cccc(Cl)c3)cc2C(Cc2ccccc2)(Cc2ccccc2)O1
0.7 | CC1(C)OC(=S)Nc2ccc(-c3ccc(C#N)s3)cc21

EC50 [nM] | Compound
2.6 | COc1cc(F)cc(-c2ccc3c(c2)C(C)(C)OC(=S)N3)c1
80.1 | CC1(C)OC(=S)Nc2c(Br)cc(-c3cc(F)cc(C#N)c3)cc21
> 10000 | CCN1C(=S)OC(C)(C)c2cc(-c3cc(F)cc(C#N)c3)ccc21
2.5 | CC1(C)OC(=S)Nc2ccc(-c3cc(F)cc(C(F)(F)F)c3)cc21
7.2 | CCC1(CC)OC(=S)Nc2ccc(-c3cccc(Cl)c3)cc21
26.5 | CC1(C)OC(=S)Nc2ccc(-c3cc(Cl)cc(Cl)c3)cc21
44.9 | CC1(C)OC(=S)Nc2ccc(-c3cc(Cl)cc(C#N)c3)cc21
11.4 | CC1(C)OC(=S)Nc2ccc(-c3ccc(F)c(F)c3)cc21
0.6 | CC1(C)OC(=S)Nc2ccc(-c3cc(F)cc(C#N)c3)cc21
1.1 | CC1(C)OC(=S)Nc2ccc(-c3cccc([N+](=O)[O-])c3)cc21
> 10000 | CN1C(=S)OC(C)(C)c2cc(-c3cc(F)cc(Br)c3)ccc21
> 10000 | Cc1cc(Br)cc(-c2ccc3c(c2)C(C)(C)OC(=S)N3)c1
> 10000 | CC1(C)OC(S)=Nc2ccc(-c3cc(Br)cc(C#N)c3)cc21
2.5 | N#Cc1cccc(-c2ccc3c(c2)C2(CCCCC2)OC(=S)N3)c1
2.5 | CC1(C)OC(=S)Nc2ccc(-c3cccc(Br)c3)cc21
1.5 | CC1(C)OC(=S)Nc2ccc(-c3cccc(F)c3F)cc21
> 10000 | CC1(C)OC(S)=Nc2c(Br)cc(-c3ccc(C#N)c(F)c3)cc21
4.7 | CCC1(CC)OC(=S)Nc2ccc(-c3cccc([N+](=O)[O-])c3)cc21
1000 | CC1(C)OC(=S)Nc2c(F)cc(-c3cc(F)cc(C#N)c3)cc21
200 | Cc1cc(C#N)cc(-c2ccc3c(c2)C(C)(C)OC(=S)N3)c1
1.7 | CC1(C)OC(=S)Nc2ccc(-c3cccc(Cl)c3)cc21
11.6 | CC1(C)OC(=S)Nc2ccc(-c3ccccc3F)cc21

molecular target: T2, Progesterone receptor; experiment: Inhibition of [3H]P4 binding at progesterone receptor of human T47D breast carcinoma cells; type: cell-based

IC50 [nM] | Compound
100 | CC1(C)OC(S)=Nc2ccc(-c3cc(C#N)cc(OC(F)(F)F)c3)cc21
100 | COc1cc(C#N)cc(-c2ccc3c(c2)C(C)(C)OC(=S)N3)c1
100 | CC1(C)OC(=S)Nc2ccc(-c3cc(Br)cc(OC(F)(F)F)c3)cc21
100 | Cc1cc(Br)cc(-c2ccc3c(c2)C(C)(C)OC(=S)N3)c1
100 | CC1(C)OC(S)=Nc2ccc(-c3cc(Br)cc(C#N)c3)cc21

molecular target: T1, Progesterone receptor (Rattus norvegicus); experiment: Effective dose on oral administration in ovariectomized female rat decidualization model; type: functional, organism-based

ED50 [mg/kg] | Compound
1.5 | CC1(C)OC(S)=Nc2ccc(-c3ccc(C#N)s3)cc21
0.62 | CC1(C)OC(S)=Nc2ccc(-c3csc(C#N)c3)cc21
0.1 | CC1(C)OC(S)=Nc2ccc(-c3cc(F)cc(C#N)c3)cc21

Reference: ChEMBL document CHEMBL1136686 (Bioorg Med Chem Lett, 2003)
